{"source": "BindingDB's records for patent US12065436", "about": "(Cytokinetics, 2024)", "target": "T1, Myosin-7 (Bos taurus, UniProt Q9BE39)", "T1 construct": "gene MYH7", "T1 sequence (Q9BE39 whole entry, looked up)": "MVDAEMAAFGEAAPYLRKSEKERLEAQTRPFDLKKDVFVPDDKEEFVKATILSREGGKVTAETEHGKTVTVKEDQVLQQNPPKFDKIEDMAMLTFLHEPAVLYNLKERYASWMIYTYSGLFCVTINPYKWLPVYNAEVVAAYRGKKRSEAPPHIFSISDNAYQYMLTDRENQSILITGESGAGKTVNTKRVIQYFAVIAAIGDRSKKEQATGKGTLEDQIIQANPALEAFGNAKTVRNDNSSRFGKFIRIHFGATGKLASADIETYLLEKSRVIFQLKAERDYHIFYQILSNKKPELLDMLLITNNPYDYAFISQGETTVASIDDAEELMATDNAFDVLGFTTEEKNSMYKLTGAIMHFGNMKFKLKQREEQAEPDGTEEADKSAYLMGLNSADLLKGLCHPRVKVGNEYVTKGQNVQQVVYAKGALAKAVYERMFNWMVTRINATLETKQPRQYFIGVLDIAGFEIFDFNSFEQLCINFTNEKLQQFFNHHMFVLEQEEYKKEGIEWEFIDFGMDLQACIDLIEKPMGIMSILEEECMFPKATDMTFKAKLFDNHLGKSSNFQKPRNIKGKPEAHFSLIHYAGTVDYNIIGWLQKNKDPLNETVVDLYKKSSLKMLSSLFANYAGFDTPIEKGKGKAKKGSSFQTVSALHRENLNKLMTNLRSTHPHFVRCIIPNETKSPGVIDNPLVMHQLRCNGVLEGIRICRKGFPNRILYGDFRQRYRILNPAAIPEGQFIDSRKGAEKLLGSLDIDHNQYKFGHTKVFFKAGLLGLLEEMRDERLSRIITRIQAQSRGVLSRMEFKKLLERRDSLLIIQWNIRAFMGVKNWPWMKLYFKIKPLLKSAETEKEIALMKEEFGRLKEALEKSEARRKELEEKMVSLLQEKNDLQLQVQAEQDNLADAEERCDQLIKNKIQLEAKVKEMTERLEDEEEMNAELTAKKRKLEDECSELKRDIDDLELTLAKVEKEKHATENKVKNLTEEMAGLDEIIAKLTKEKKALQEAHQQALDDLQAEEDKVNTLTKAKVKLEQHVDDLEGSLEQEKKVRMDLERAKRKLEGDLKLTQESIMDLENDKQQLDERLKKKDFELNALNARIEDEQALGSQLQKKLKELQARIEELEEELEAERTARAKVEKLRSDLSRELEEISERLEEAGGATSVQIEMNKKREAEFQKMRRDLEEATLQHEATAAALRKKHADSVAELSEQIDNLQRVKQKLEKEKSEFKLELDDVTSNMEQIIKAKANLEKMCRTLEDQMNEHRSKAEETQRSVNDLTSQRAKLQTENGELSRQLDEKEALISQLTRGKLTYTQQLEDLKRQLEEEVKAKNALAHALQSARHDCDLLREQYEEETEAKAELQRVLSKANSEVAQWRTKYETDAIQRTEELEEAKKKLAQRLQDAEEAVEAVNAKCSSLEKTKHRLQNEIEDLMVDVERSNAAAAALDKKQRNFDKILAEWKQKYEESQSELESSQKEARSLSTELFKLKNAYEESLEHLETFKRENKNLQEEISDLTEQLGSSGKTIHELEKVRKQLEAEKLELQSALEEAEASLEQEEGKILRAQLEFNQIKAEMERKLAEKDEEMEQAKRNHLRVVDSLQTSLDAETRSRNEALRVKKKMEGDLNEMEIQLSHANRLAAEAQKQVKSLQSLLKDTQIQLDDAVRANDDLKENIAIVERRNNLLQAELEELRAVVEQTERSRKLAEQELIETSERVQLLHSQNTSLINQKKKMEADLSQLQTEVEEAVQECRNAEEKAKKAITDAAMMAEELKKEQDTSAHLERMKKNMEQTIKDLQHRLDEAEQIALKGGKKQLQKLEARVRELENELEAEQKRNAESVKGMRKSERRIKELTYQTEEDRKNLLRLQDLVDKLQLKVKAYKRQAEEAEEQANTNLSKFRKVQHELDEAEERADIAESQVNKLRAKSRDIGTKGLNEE", "assay": "Myofibril Assays", "procedure": "To evaluate the effect of compounds on the ATPase activity of full-length cardiac myosin in the context of the native sarcomere, skinned myofibril assays were performed. Bovine cardiac myofibrils were obtained by homogenizing bovine cardiac left ventricular tissue in the presence of a detergent such as triton X-100. Such treatment removes membranes and a majority of the soluble cytoplasmic proteins but leaves intact the cardiac sarcomeric acto-myosin apparatus. Myofibril preparations retain the ability to hydrolyze ATP in an Ca2+ regulated manner. […] Small molecule agents were assessed for their ability to inhibit the steady-state ATPase activity of bovine cardiac myofibrils using pyruvate kinase and lactate dehydrogenase (PK/LDH)-coupled enzyme system. This assay regenerates myosin-produced ADP into ATP by oxidizing NADH, producing an absorbance change at 340 nm.", "note": "pIC50: −log10 of the molar value.", "data": [{"smiles": "Cc1nc(-c2ccc3c(c2)CCC3NC(=O)Nc2cnccn2)no1", "note": "(stereo not given) [US12065436, Compound 86]", "values": [{"measurement": "pIC50", "value": 4.83}]}, {"smiles": "Cc1cnoc1C(=O)N[C@@H]1CCc2cc(-c3noc(C(F)F)n3)ccc21", "note": "[US12065436, Compound 93]", "values": [{"measurement": "pIC50", "value": 6.05}]}, {"smiles": "Cc1cc(C(=O)NC2CCc3cc(-c4noc(C(F)F)n4)ccc32)on1", "note": "(stereo not given) [US12065436, Compound 102]", "values": [{"measurement": "pIC50", "value": 5.24}]}, {"smiles": "Cc1cnoc1C(=O)NC1CCc2cc(-c3noc(C(F)F)n3)ccc21", "note": "(stereo not given) [US12065436, Compound 103]", "values": [{"measurement": "pIC50", "value": 5.66}]}, {"smiles": "O=C(N[C@@H]1CCc2cc(-c3noc(C4CC4)n3)ccc21)C1CC1", "note": "[US12065436, Compound 318]", "values": [{"measurement": "pIC50", "value": 5.03}]}, {"smiles": "CCc1cc(-c2ccc3c(c2)CC[C@H]3NC(=O)OC)no1", "note": "[US12065436, Compound 345]", "values": [{"measurement": "pIC50", "value": 6.10}]}, {"smiles": "Cn1cc(C(=O)N[C@@H]2CCc3cc(-c4noc(C5CCC5)n4)ccc32)cn1", "note": "[US12065436, Compound 411]", "values": [{"measurement": "pIC50", "value": 5.49}]}, {"smiles": "CCc1nc(-c2ccc3c(c2)CC[C@H]3NC(=O)c2cnn(C3CN(C(=O)OC(C)(C)C)C3)c2)no1", "note": "[US12065436, Compound 471]", "values": [{"measurement": "pIC50", "value": 5.15}]}, {"smiles": "CCc1nc(-c2ccc3c(c2)CC[C@H]3NC(=O)c2cnn(C3CN(C(=O)OC)C3)c2)no1", "note": "[US12065436, Compound 480]", "values": [{"measurement": "pIC50", "value": 4.41}]}, {"smiles": "COCc1nc(-c2ccc3c(c2)CC[C@H]3NC(=O)c2cnc(C)n2C)no1", "note": "[US12065436, Compound 691]", "values": [{"measurement": "pIC50", "value": 5.24}]}]}
